Test results from paper PMC4128571 (Drug testing and analysis, 2014).

Experiments:
Format in all cases: biochemical
[1] = biological target: dopamine transporters (DAT) (Rattus norvegicus, UniProt P23977); settings: for DAT/SERT ratio: (EC50 at DAT)^-1/(EC50 at SERT)^-1, higher value indicates greater DAT selectivity; for Efficacy to evoke release at DAT (of maximal release): rat brain synaptosomes
[2] = biological target: norepinephrine transporters (NET) (Rattus norvegicus, UniProt Q63380); settings: rat brain synaptosomes
norepinephrine transporters (NET), sequence (Q63380 1-617): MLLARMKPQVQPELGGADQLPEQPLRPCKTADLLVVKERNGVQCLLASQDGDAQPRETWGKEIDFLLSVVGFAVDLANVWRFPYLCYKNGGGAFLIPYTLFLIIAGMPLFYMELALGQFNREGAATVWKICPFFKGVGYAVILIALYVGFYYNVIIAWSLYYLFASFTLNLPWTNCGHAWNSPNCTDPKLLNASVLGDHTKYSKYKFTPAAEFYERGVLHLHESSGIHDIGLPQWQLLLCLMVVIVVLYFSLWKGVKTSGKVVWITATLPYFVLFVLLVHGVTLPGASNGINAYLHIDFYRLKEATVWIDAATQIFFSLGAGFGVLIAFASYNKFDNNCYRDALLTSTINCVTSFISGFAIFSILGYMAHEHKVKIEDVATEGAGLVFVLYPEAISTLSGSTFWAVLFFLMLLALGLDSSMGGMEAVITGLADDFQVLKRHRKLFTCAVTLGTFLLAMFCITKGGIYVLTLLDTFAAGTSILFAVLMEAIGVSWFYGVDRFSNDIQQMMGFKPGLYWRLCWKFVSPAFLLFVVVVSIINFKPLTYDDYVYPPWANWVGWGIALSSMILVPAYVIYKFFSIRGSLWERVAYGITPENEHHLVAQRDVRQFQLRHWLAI

5-HT transporters (SERT) = 5-HT transporters (SERT) (Rattus norvegicus, UniProt P31652); settings: for Efficacy to evoke release at SERT (of maximal release): rat brain synaptosomes
5-HT transporters (SERT), sequence (P31652 whole entry): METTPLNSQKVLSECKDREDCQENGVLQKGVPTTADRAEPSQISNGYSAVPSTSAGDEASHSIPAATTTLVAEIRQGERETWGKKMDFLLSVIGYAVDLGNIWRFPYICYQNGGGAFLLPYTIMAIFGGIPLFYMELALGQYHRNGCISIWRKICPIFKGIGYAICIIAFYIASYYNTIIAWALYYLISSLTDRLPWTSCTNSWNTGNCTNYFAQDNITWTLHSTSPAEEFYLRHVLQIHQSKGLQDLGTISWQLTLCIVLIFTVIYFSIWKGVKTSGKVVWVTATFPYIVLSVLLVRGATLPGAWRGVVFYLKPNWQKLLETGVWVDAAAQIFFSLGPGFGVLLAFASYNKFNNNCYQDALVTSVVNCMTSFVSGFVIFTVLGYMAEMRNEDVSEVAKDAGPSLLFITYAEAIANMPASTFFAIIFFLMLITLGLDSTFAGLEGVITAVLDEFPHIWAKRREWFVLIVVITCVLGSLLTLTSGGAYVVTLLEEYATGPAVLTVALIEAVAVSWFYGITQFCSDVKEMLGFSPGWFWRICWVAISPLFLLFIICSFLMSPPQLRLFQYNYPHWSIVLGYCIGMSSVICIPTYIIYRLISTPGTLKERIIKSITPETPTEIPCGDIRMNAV

dopamine transporters (DAT), sequence (P23977 whole entry): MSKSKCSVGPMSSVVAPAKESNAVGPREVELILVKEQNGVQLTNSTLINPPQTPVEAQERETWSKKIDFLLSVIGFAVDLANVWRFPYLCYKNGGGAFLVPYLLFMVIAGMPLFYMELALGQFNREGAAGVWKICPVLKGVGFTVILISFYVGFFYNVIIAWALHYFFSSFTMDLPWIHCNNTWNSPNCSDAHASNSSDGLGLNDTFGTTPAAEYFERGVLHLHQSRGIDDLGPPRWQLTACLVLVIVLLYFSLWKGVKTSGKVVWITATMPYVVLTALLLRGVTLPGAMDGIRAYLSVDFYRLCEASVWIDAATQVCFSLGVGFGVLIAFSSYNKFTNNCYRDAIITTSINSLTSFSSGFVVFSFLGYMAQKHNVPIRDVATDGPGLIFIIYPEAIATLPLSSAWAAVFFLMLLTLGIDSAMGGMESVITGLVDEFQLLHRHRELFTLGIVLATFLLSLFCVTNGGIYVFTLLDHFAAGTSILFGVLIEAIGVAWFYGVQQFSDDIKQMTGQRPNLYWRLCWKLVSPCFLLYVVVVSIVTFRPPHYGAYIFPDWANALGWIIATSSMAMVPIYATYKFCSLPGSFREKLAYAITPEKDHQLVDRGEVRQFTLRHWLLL

Cc1ccc([C@H]2OC(N)=N[C@H]2C)cc1 (racemic) [(±)-cis-4,4'-DMAR, (±)-cis-4-Methyl-5-(4-methylphenyl)-4,5-dihydrooxazol-2-amine]
DAT/SERT ratio [1]: 2
Efficacy to evoke release at DAT (of maximal release) [1]: fully efficacious
Efficacy to evoke release at NET (of maximal release) [2]: fully efficacious
Efficacy to evoke release at SERT (of maximal release) (5-HT transporters (SERT)): fully efficacious

C[C@H](N)Cc1ccccc1 [d-Amphetamine]
Efficacy to evoke release at NET (of maximal release) [2]: fully efficacious

NC1=NCC(c2ccccc2)O1 (stereo not drawn) [Aminorex, 5-phenyl-4,5-dihydrooxazol-2-amine]
EC50 [1]: 9.1 ± 0.9 nM
DAT/SERT ratio [1]: 45
Efficacy to evoke release at DAT (of maximal release) [1]: fully efficacious
Efficacy to evoke release at NET (of maximal release) [2]: fully efficacious
EC50 (5-HT transporters (SERT)): 414 ± 78 nM
Efficacy to evoke release at SERT (of maximal release) (5-HT transporters (SERT)): fully efficacious

C[C@@H]1N=C(N)O[C@@H]1c1ccccc1 (racemic) [(±)-cis-4-MAR, (±)-cis-4-methylaminorex]
DAT/SERT ratio [1]: 31
Efficacy to evoke release at DAT (of maximal release) [1]: fully efficacious
Efficacy to evoke release at NET (of maximal release) [2]: fully efficacious
Efficacy to evoke release at SERT (of maximal release) (5-HT transporters (SERT)): fully efficacious
